According to patent US5053333A, “Protease” (M & D Research Co., Ltd., priority 1988, dated 1991):
Read-outs that look alike come from different tables or passages of the source. Numbered stars: 1 amine (or outer) side, 2 acyl side, 3 side chain; on linkers, the order of the positions; unused ones are H or OH. Peptide text beside a SMILES is read from it. * marks the point of attachment. AMC = Cc1cc(=O)oc2cc(N*)ccc12; Suc = O=C(CCC(=O)[*:2])[*:1]; Boc = CC(C)(C)OC(=O)*

Key:
[1] = test system: Benz-I (protease specific for basic amino acid residue); assay: Behavior of Benz-I against various inhibitors (residual activity); type: biochemical, Kluyveromyces lactis IFO 1903
[2] = test system: Benz-II (protease specific for basic amino acid residue); assay: Behavior of Benz-II against various inhibitors (residual activity); type: biochemical, Kluyveromyces lactis IFO 1903
[3] = test system: protease specific for basic amino acid residue from Sporobolomyces odrus IFO 1597; assay: Behavior of Sporobolomyces protease against various inhibitors (residual activity); type: biochemical; settings: 25° C. 30 minutes
[4] = test system: protease specific for basic amino acid residue from Sporobolomyces odrus IFO 1597; assay: Substrate specificity of Sporobolomyces protease with fluorescent substrates; type: biochemical; settings: activity for Boc-Gln-Arg-Arg-MCA being 100; standard conditions
Procedure: A reaction mixture containing 50 μmol of tris hydrochloride buffer solution (pH 7.0), 10 mg of Lubrol PX, 0.5 μmol of calcium chloride, 0.1 μmol of Boc-Gln-Arg-Arg-MCA, wherein Boc represents a t-butyloxycalbonyl group while MCA represents 4-methylcoumarin-7-amide and the enzyme is allowed to react at 30° C. The fluorescence (excition wavelength: 380 nm, emission wavelength: 460 nm) originating from the 7-amino-4-methylcoumarin (AMC) thus formed is monitored. The amount of the enzyme capable of catalyzing the release of 1 nmol of AMC per one minute is defined as 1 U.
The activities of the enzyme for various fluorescent substrates were determined under standard reaction conditions.

[5] = test system: Benz-I (protease specific for basic amino acid residue); assay: Substrate specificity of Benz-I with fluorescent substrates; type: biochemical, Kluyveromyces lactis IFO 1903; settings: activity for Boc-Gln-Arg-Arg-MCA being 100; standard conditions
Procedure: (§1) 1 ml of a reaction mixture containing 50 μmol of Tris-hydrochloride buffer (pH 7.0), 10 mg of Lubrol PX, 0.5 μmol of calcium chloride, 0.1 μmol of Boc-Gln-Arg-Arg-MCA, wherein Boc represents a t-butyloxycarbonyl group while MCA represents 4-methylcoumarin-7-amide and the enzyme is allowed to react at 30° C. The fluorescence (excition wavelength: 380 nm, emmision wavelength: 460 nm) originating from the 7-amino-4-methylcoumarin (AMC) thus formed is monitored with the lapse of time. The amount of the enzyme activity capable of catalyzing the release of 1 n mol of AMC per one minute is defined as 1 U. The specific activity is represented by U per mg of protein. The amount of the protein is determined by measurement the absorbance at […] as E^1% of protein being assumed to be 10.
(§2) The activities of Benz-I and Benz-II were determined under standard conditions with the use of various fluorescent substrates. The activity for each substrate was expressed by relative activity with the activity for Boc-Gln-Arg-Arg-MCA being 100.

[6] = test system: Benz-II (protease specific for basic amino acid residue); assay: Substrate specificity of Benz-II with fluorescent substrates; type: biochemical, Kluyveromyces lactis IFO 1903; settings: activity for Boc-Gln-Arg-Arg-MCA being 100; standard conditions
Procedure: as §1, §2

[7] = inhibitor 1 mM, 25° C. 30 minutes, control lot = 100
[8] = inhibitor 4 M, 25° C. 30 minutes, control lot = 100
[9] = inhibitor 10 μM, 25° C. 30 minutes, control lot = 100

c1cnc2c(c1)ccc1cccnc12 [o-phenanthroline]
Residual activity of Benz-I [1, 7]: 96
Residual activity of Benz-II [2, 7]: 86
relative activity (residual) ([3]; Ca2+ --, inhibitor 1 mM): 91%

Cc1cc(=O)oc2cc(NC(=O)[C@H](CCCCN)NC(=O)[C@H](CC(C)C)NC(=O)[C@@H](NC(=O)OC(C)(C)C)C(C)C)ccc12 [Boc--Val--Leu--Lys--MCA] (Boc-Val-Leu-Lys-{AMC})
Activity (relative) for substrate [4]: 0%

Cc1cc(=O)oc2cc(NC(=O)[C@H](CCCNC(=N)N)NC(=O)[C@H](CCCNC(=N)N)NC(=O)[C@H](CCC(N)=O)NC(=O)OC(C)(C)C)ccc12 [Boc--Gln--Arg--Arg--MCA, Boc-Gln-Arg-Arg-MCA] (Boc-Gln-Arg-Arg-{AMC})
Relative activity of Benz-I for substrate [5]: 100
Relative activity of Benz-II for substrate [6]: 100
Activity (relative) for substrate [4]: 100%

Cc1cc(=O)oc2cc(NC(=O)[C@H](CCCNC(=N)N)NC(=O)[C@H](CCCNC(=N)N)NC(=O)[C@H](CC(C)C)NC(=O)OC(C)(C)C)ccc12 [Boc--Leu--Arg--Arg--MCA] (Boc-Leu-Arg-Arg-{AMC})
Relative activity of Benz-I for substrate [5]: 159
Relative activity of Benz-II for substrate [6]: 156
Activity (relative) for substrate [4]: 115%

Cc1cc(=O)oc2cc(NC(=O)[C@H](CCCNC(=N)N)NC(=O)[C@@H](NC(=O)[C@H](CO)NC(=O)[C@H](CC(C)C)NC(=O)OC(C)(C)C)[C@@H](C)O)ccc12 [Boc--Leu--Ser--Thr--Arg--MCA] (Boc-LSTR-{AMC})
Relative activity of Benz-I for substrate [5]: 127
Relative activity of Benz-II for substrate [6]: 97.0
Activity (relative) for substrate [4]: 2%

Cc1cc(=O)oc2cc(NC(=O)[C@H](CCCNC(=N)N)NC(=O)[C@H](CCCCN)NC(=O)CNC(=O)OC(C)(C)C)ccc12 [Boc--Gly--Lys--Arg--MCA] (Boc-Gly-Lys-Arg-{AMC})
Relative activity of Benz-I for substrate [5]: 120
Relative activity of Benz-II for substrate [6]: 123
Activity (relative) for substrate [4]: 59%

NC(N)=O [urea]
Residual activity of Benz-I [1, 8]: 23
Residual activity of Benz-II [2, 8]: 29

NC(=O)CI [iodoacetamide]
Residual activity of Benz-I [1, 7]: 92
Residual activity of Benz-II [2, 7]: 87
relative activity (residual) ([3]; Ca2+ +, inhibitor 1 mM): 96%

O=C(O)CI [iodoacetic acid]
Residual activity of Benz-I [1]: 99
Residual activity of Benz-II [2]: 93

Cc1cc(=O)oc2cc(NC(=O)[C@H](CCCNC(=N)N)NC(=O)c3ccccc3)ccc12 [Bz--Arg--MCA]
Activity (relative) for substrate [4]: 0%

CC(C)C[C@H](NP(=O)(O)O[C@@H]1O[C@@H](C)[C@H](O)[C@@H](O)[C@H]1O)C(=O)N[C@@H](Cc1c[nH]c2ccccc12)C(=O)O [phosphoramidon]
Residual activity of Benz-I [1, 9]: 101
Residual activity of Benz-II [2, 9]: 93
relative activity (residual) ([3]; Ca2+ +, inhibitor 10 μM): 100%

Cc1cc(=O)oc2cc(NC(=O)[C@H](CCCNC(=N)N)NC(=O)[C@H](CCCNC(=N)N)NC(=O)CNC(=O)OC(C)(C)C)ccc12 [Boc--Gly--Arg--Arg--MCA]
Relative activity of Benz-I for substrate [5]: 19.8
Relative activity of Benz-II for substrate [6]: 19.7
Activity (relative) for substrate [4]: 32%

CC(C)C[C@H](NC(=O)[C@H]1O[C@@H]1C(=O)O)C(=O)NCCCCNC(=N)N [E-64]
Residual activity of Benz-I [1, 9]: 99
Residual activity of Benz-II [2, 9]: 96
relative activity (residual) ([3]; Ca2+ +, inhibitor 10 μM): 100%

Cc1cc(=O)oc2cc(NC(=O)[C@H](C)NC(=O)[C@@H]3CCCN3C(=O)[C@H](C)NC(=O)CCC(=O)O)ccc12 [Suc--Ala--Pro--Ala--MCA] (Suc-Ala-Pro-Ala-{AMC})
Activity (relative) for substrate [4]: 0%

CCN1C(=O)C=CC1=O [N-ethylmaleimide]
Residual activity of Benz-I [1, 7]: 101
Residual activity of Benz-II [2, 7]: 94
relative activity (residual) ([3]; Ca2+ +, inhibitor 1 mM): 125%

N=C(N)c1ccccc1 [benzamidine]
Residual activity of Benz-I [1, 7]: 79
Residual activity of Benz-II [2, 7]: 82
relative activity (residual) ([3]; Ca2+ +, inhibitor 1 mM): 82%

Cc1cc(=O)oc2cc(NC(=O)[C@H](Cc3ccccc3)NC(=O)[C@@H]3CCCN3C(=O)[C@H](C)NC(=O)[C@H](C)NC(=O)CCC(=O)O)ccc12 [Suc--Ala--Ala--Pro--Phe--MCA] (Suc-AAPF-{AMC})
Activity (relative) for substrate [4]: < 1%

Cc1cc(=O)oc2cc(NC(=O)[C@H](CCCNC(=N)N)NC(=O)[C@H](Cc3ccccc3)NC(=O)[C@@H]3CCCN3)ccc12 [Pro--Phe--Arg--MCA] (H-Pro-Phe-Arg-{AMC})
Activity (relative) for substrate [4]: 0%
